Measured values: patent US9408871B2, “Methods for inhibiting complement activation and uses thereof” (THE UNIVERSITY OF BRITISH COLUMBIA, priority 2013, dated 2016)

How the values were obtained:
[1] = system: choroidal neovascularization; assay: experimental laser-induced choroidal neovascularization (CNV) model, retina whole mounts; assay type: in vivo; details: rat, intravitreal injection 10′ after laser, final estimated concentration 200 μM, 5 days
Method: Eleven-week-old female Long Even (LE) rats (Charles River Laboratory, Wilmington, Mass.) weighing 256 to 315 g were used. The animals were handled in accordance with institutional guidelines and the ARVO Statement for the Use of Animals in Ophthalmic and Vision Research. The rats were anesthetized by intramuscular injection of a 1 mL/kg mixture (1:1) of ketamine hydrochloride (40 mg/kg) and xylazine hydrochloride (10 mg/ml), and their pupils were dilated with tropicamide (0.5% Mydrin). Experimental choroidal neovascularization (CNV) was created as described previously (Takehana et al., Invest Ophthalmol Vis Sci, 1999, 40 (2):459-66). […]
After laser treatment, under anesthesia, intravitreal injections were performed on a lasered eye under a dissecting microscope (Stereo dissection microscope, SMZ 1000; Nikon, Tokyo, Japan). […] After the procedure, animals were monitored in a recovery enclosure until they resumed baseline normal activity levels. […]
Each eye cup flatmount preparation was analyzed using a confocal laser-scanning microscope (Zeiss-LSM 510 META). […] Intensity and size of GSL-IB4 and C5b-9 immunohistochemistry were analyzed using image-processing and image-analysis software Image J 1.37 (developed by Wayne Rasband, National Institute of Health, Bethesda, Md., USA). […]

C5b,6 = target: T1, C5b,6 (Homo sapiens, UniProt P01031+P13671); assay: analytic gel filtration; assay type: binding; details: 10 mM
T1 construct: C5 convertase that cleaves C5 into C5a and C5b; human plasma-derived C5b,6, C7, C8, and C9; purchased Complement Technology, Inc. (Tyler, Tex., USA); host or cells: human plasma
T1 sequence (P01031 19-673 limits assumed): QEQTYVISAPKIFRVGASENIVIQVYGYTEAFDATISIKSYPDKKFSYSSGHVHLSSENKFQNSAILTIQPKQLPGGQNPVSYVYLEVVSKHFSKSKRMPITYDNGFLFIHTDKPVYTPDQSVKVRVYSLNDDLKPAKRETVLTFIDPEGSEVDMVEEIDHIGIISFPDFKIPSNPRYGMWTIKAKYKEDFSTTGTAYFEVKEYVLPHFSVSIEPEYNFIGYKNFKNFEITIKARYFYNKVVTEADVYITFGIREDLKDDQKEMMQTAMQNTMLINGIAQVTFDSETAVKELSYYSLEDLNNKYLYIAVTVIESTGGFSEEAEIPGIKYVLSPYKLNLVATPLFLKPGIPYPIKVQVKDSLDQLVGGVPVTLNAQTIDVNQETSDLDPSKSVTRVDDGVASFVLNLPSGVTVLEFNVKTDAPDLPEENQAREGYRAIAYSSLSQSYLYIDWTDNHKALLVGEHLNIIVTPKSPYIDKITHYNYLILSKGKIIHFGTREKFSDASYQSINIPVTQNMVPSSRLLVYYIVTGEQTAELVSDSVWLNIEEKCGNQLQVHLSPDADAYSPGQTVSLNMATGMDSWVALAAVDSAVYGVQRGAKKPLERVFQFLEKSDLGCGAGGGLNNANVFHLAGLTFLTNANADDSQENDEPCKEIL
T1 sequence (P01031 752-1676 limits assumed): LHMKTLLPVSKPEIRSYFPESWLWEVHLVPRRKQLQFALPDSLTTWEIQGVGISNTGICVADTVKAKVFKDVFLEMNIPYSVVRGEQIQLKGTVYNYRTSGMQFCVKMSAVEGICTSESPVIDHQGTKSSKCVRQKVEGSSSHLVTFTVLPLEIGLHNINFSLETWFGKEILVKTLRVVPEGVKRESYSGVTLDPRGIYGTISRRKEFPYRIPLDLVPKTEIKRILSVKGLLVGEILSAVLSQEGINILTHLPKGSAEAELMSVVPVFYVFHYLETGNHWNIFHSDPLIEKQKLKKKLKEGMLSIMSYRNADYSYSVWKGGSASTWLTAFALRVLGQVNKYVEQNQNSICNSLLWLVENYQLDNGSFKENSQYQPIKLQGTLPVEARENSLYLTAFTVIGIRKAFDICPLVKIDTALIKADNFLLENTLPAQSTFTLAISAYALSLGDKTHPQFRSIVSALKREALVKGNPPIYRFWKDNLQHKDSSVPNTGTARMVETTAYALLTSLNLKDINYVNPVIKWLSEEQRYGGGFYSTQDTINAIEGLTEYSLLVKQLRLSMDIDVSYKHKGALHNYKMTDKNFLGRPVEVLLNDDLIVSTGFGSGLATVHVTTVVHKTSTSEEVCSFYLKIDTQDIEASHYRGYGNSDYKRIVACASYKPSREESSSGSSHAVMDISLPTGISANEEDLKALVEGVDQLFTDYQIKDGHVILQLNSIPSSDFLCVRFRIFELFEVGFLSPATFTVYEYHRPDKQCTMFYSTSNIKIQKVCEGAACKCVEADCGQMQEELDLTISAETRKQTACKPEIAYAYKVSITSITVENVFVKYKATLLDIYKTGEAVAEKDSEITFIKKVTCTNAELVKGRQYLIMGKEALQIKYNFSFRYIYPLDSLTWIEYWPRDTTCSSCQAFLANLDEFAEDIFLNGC
T1 sequence (P13671 22-934): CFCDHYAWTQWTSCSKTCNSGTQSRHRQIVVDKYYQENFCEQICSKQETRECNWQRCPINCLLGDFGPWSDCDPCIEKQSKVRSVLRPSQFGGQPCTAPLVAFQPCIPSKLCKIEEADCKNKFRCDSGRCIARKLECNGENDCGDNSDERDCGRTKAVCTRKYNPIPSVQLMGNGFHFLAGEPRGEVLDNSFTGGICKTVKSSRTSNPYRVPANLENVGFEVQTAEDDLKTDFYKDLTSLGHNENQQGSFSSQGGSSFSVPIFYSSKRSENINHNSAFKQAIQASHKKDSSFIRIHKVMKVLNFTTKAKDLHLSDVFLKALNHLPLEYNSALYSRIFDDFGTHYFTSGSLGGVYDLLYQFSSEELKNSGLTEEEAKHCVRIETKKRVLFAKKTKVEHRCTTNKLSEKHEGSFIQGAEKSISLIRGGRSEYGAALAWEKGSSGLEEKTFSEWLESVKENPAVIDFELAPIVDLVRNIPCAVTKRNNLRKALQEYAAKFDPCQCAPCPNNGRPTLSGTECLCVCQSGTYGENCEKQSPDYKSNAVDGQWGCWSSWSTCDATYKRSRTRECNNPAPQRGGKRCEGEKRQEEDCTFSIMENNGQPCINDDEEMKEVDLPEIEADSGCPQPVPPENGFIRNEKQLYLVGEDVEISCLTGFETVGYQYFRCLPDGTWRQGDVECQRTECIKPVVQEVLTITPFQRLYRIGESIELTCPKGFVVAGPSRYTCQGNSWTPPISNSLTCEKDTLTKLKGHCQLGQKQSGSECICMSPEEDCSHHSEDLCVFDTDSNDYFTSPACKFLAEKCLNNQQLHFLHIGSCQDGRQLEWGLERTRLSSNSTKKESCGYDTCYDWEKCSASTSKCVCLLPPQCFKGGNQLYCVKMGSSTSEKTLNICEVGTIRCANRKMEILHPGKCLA
Method: Proteins were stored in their stock solution buffers. The C5b,6 buffer consisted of 10 mM HEPES, 120 mM NaCl, pH 7.2. The C7 buffer consisted of 10 mM Na3PO4, 145 mM NaCl, at pH 7.3 (PBS). The buffers were filtered through a 0.22 μm pore diameter Stericup and Steritop Express™ PLUS filter from Millipore (Billerica, Mass., USA).
Proteins were thawed at 37° C. for 10 min. An excess amount of protein was removed from the stock vial and transferred to a clean 600 μL microtube. C7 was diluted to […]. The proteins were centrifuged at 20,817 g for 15 min and under a Class 2A Biosafety Cabinet, 100 μL fractions were transferred to clean microtubes. The following samples were analyzed by gel filtration:
For all samples, 20 μg of the protein in 100 μL of their respective buffers was prepared. For samples containing polyphosphate, 8 μL of 400 mM polyP>1000 was mixed with 2 μL of 5× concentrated HBS (for C5b,6) or PBS (for C7), yielding a solution of 320 mM polyP>1000 in HBS or PBS. 3.13 μL of the polyphosphate solution was added to 100 μL of either C5b,6 or C7, for a final polyP>1000 concentration of 9.71 mM. […]
The gel filtration apparatus, ÄKTAmicro System from G.E. Healthcare (Buckinghamshire, UK), was equilibrated with either HBS (0.22 μm filtered) for C5b,6 or PBS (0.22 μm filtered) for C7 for at least 1 hour, at 5 μL per minute. […] Protein was monitored with UV absorbance at 280 nm. […]

**Q.** With `O=P(O)(O)O` [P1, Orthophosphate] as the compound, how does the “neovascularization and deposition of MAC on retina after laser injury” value [1] read?
**A.** is not protective

**Q.** What about the “effect on C5b,6 elution profile in gel filtration” value (C5b,6) of the same compound?
**A.** did not affect the retention time or elution profile
